Measured values published in patent US9822069B2, “Urea derivative or pharmacologically acceptable salt thereof” (KYORIN PHARMACEUTICAL CO. LTD., priority 2013, dated 2017).

Each molecule was assayed against T1, human FPRL1 (Homo sapiens, UniProt P25090) (assay: Measurement test of agonist activity on human FPRL1 (test of calcium mobilization in cell, HEK293 with human FPRL1 and Gα15 expression vectors)). Settings: calcium mobilization in HEK293 cells with human FPRL1 and Gα15 expression vectors.
T1 construct: expressed in transfected cells; host or cells: HEK293 (JCRB9068, NIBIO), transient transfection with pCMV-script vectors using Lipofectamine 2000
T1 sequence (P25090 1-351): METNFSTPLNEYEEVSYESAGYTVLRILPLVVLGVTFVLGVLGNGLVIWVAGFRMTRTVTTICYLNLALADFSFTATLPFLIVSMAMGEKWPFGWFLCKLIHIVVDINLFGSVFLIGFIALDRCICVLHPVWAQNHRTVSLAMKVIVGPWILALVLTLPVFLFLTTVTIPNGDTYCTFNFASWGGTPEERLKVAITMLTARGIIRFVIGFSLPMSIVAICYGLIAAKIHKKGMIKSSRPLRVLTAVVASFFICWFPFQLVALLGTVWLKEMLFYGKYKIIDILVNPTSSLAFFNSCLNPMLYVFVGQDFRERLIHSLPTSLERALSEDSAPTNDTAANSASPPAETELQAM
Type: cell-based
Source text: Measurement Test of Agonist Activity on Human FPRL1
(1-1) Construction of Human FPRL1 Expression Vector
Human FPRL (SEQ ID NO: 3) was amplified in a PCR reaction from cDNA derived from a monocytic leukemia cell line THP-1 (TIB-202, ATCC) as a template using a forward primer shown in SEQ ID NO: 1, a reverse primer shown in SEQ ID NO: 2, and KOD-plus-ver. 2 (KOD-211, TOYOBO CO., LTD.). The amplified PCR product and pCMV-script vector (212220, STRATAGENE) were digested with Hind III (1060A, Takara Bio Inc.) and XhoI (1094A, Takara Bio Inc.), and the resultant digest was ligated with Ligation high ver. 2 (LGK-201, TOYOBO CO., LTD.). The ligation product was transformed into DH5α (DNA-901, TOYOBO CO., LTD.), cultured on a 100 μg/mL kanamycin-containing LB medium, and purified with HiSpeed Plasmid Maxi Kit (12662, QIAGEN).
(1-2) Construction of Human Gα15 Expression Vector
Human Gα15 (SEQ ID NO: 6) was amplified in a PCR reaction from cDNA derived from a myeloid leukemia cell line HL-60 (CCL-240, ATCC) as a template using a forward primer shown in SEQ ID NO: 4, a reverse primer shown in SEQ ID NO: 5, and KOD-plus-ver. 2. The amplified PCR product and pCMV-script vector were digested with Hind III and XhoI, and the resultant digest was ligated with Ligation high ver. 2. The ligation product was transformed into DH5α, cultured on a 100 μg/mL kanamycin-containing LB medium, and purified with HiSpeed Plasmid Maxi Kit.
(2-1) Method for Culturing and Subculturing HEK293
HEK293 (JCRB9068, NIBIO) was cultured in an incubator at 5% CO2 and 37° C. using DMEM (11885-092, GIBCO) containing 10% FBS and 1× Penicillin-Streptomycin (15140-122, GIBCO). Subculture was carried out as followings: The cells that reached 80 to 90% confluency were washed with PBS(−), separated using 0.25% Trypsin-EDTA (25200-072, GIBCO), centrifuged, re-suspended in a fresh medium, and then seeded in Collagen Type 1 Coated dish (4020-010, IWAKI) at a split ratio of 1:8 (cultured for 3 days).
(2-2) Introduction of Human FPRL1 and Gα15 Expression Vectors
HEK293 that reached 80 to 90% confluency was washed with PBS(−), separated using 0.25% Trypsin-EDTA, centrifuged, and re-suspended in a fresh medium excluding 1× Penicillin-Streptomycin. The cells were inoculated in a Collagen Type 1 coated 6-well plate (4810-010, IWAKI) to 5×10^5 cells/2.5 mL/well and cultured overnight. On the next day, human FPRL1 and Gα15 expression vectors were introduced using Lipofectamine 2000 transfection reagent (11668-019, Life technologies). First, the human FPRL1 and Gα15 expression vectors were diluted with Opti-MEM I Reduced Serum Medium (31985-070, GIBCO) to 2 μg/250 μL/well and Lipofectamine 2000 transfection reagent was diluted with Opti-MEM I Reduced Serum Medium to be 4 μL/250 μL/well. The vectors and reagent were softly diffused, and incubated at room temperature for 5 minutes. The vector solution was mixed with Lipofectamine 2000 transfection reagent in equal amounts. In order to form a composite of the vectors and Lipofectamine 2000 transfection reagent, the mixture was incubated at room temperature for 20 minutes, and added at 500 μL/well to the medium of inoculated cells. The treated cells were cultured for 24 hours, inoculated in Poly-D-Lysine coated 96-well plate (356640, BD Biosciences) at a cell density of 7×10^4 cells/100 μL/well, and cultured for another 24 hours. The resultant cells were used in a measurement test of calcium mobilization in the cells.
(3) Evaluation of Agonist Activity on Human FPRL1 (Test of Calcium Mobilization in Cell)
An appropriate amount of each test compound was first weighed, and dissolved to 10^−2 M by addition of dimethyl sulfoxide (DMSO). […]

| SMILES | EC50 [nM] |
| --- | --- |
| COc1ccc([C@@H]2CN(CCO)C(=O)C2NC(=O)Nc2ccc(Cl)cc2)cc1 (mixture of isomers) [Example 14-1, (±)-trans-1-(4-Chlorophenyl)-3-[1-(2-hydroxyethyl)-4-(4-methoxyphenyl)-2-oxopyrrolidin-3-yl]urea] | 0.32 |
| COc1cc(F)c([C@@H]2CNC(=O)[C@H]2NC(=O)Nc2ccc(Cl)cn2)c(F)c1 (relative stereo) [Example 1-32, (−)-1-(5-chloropyridin-2-yl)-3-[(3S*,4R*)-4-(2,6-difluoro-4-methoxyphenyl)-2-oxopyrrolidin-3-yl]urea] | 4.54 |
| COc1cc(F)c([C@@H]2CNC(=O)[C@H]2NC(=O)Nc2ccc(C)s2)c(F)c1 (relative stereo) [Example 1-39, (−)-1-[(3S*,4R*)-4-(2,6-difluoro-4-methoxyphenyl)-2-oxopyrrolidin-3-yl]-3-(5-methylthiophen-2-yl)urea] | 3.51 |
| COc1ccc([C@@H]2[C@H](C)NC(=O)[C@H]2NC(=O)Nc2ccc(F)cc2)cc1 (relative stereo) [Example 1-40, (−)-1-(4-fluorophenyl)-3-[(3S*,4R*,5S*)-4-(4-methoxyphenyl)-5-methyl-2-oxopyrrolidin-3-yl]urea] | 1.44 |
| COc1ccc([C@H]2[C@H](NC(=O)Nc3ccc(F)cc3)C(=O)N[C@@H]2C)cc1 (relative stereo) [Example 1-41, (−)-1-(4-fluorophenyl)-3-[(3S*,4R*,5R*)-4-(4-methoxyphenyl)-5-methyl-2-oxopyrrolidin-3-yl]urea] | 0.73 |
| COc1cc(F)c([C@@H]2CNC(=O)[C@H]2NC(=O)Nc2cccc(O)c2)c(F)c1 (relative stereo) [Example 1-57, 1-[(3S*,4R*)-4-(2,6-difluoro-4-methoxyphenyl)-2-oxopyrrolidine-3-yl]-3-(3-hydroxyphenyl)urea] | 0.16 |
| COc1cc(F)c([C@@H]2CNC(=O)[C@H]2NC(=O)Nc2cc(C)ns2)c(F)c1 (relative stereo) [Example 1-58, (−)-1-[(3S*,4R*)-4-(2,6-difluoro-4-methoxyphenyl)-2-oxopyrrolidin-3-yl]-3-(3-methylisothiazol-5-yl)urea] | 0.32 |
| COc1cc(F)c([C@@H]2CNC(=O)[C@H]2NC(=O)Nc2ccc(C(F)(F)F)cc2)c(F)c1 (relative stereo) [Example 1-63, (−)-1-[(3S*,4R*)-4-(2,6-difluoro-4-methoxyphenyl)-2-oxopyrrolidin-3-yl]-3-[4-(trifluoromethyl)phenyl]urea] | 0.92 |
| COc1cc(F)c([C@@H]2CNC(=O)[C@H]2NC(=O)Nc2ccc(C#N)c(O)c2)c(F)c1 (relative stereo) [Example 1-73, 1-(4-cyano-3-hydroxyphenyl)-3-[(3S*,4R*)-4-(2,6-difluoro-4-methoxyphenyl)-2-oxopyrrolidin-3-yl]urea] | 1.2 |

Further molecules by falling EC50, results first:

| EC50 [nM] | SMILES |
| --- | --- |
| 5.2 | O=C(Nc1ccc(F)cc1)N[C@@H]1C(=O)NC[C@H]1c1cc2ccoc2cc1F (relative stereo) [Example 1-77, (−)-1-[(3S*,4R*)-4-(6-fluorobenzofuran-5-yl)-2-oxopyrrolidin-3-yl]-3-(4-fluorophenyl)urea] |
| 5.13 | O=C(Nc1ccc(Cl)cc1)N[C@H]1C(=O)NC[C@@H]1c1ccccc1 (relative stereo) [Example 1-43, (+)-1-(4-chlorophenyl)-3-[(3R*,4S*)-2-oxo-4-phenylpyrrolidin-3-yl]urea] |
| 3.98 | COc1ccc([C@@H]2CNC(=O)[C@H]2NC(=O)Nc2ccc(F)cc2)c(Cl)c1 (relative stereo) [EXAMPLE 1-10, 1-[(3S*,4R*)-4-(2-chloro-4-methoxyphenyl)-2-oxopyrrolidin-3-yl]-3-(4-fluorophenyl)urea] |
| 3.5 | O=C(Nc1cc2ccccc2s1)N[C@@H]1C(=O)NC[C@H]1c1cc2c(cc1F)OCC2 (relative stereo) [Example 1-85, (−)-1-(benzo[b]thiophen-2-yl)-3-[(3S*,4R*)-4-(6-fluoro-2,3-dihydrobenzofuran-5-yl)-2-oxopyrrolidin-3-yl]urea] |
| 1.91 | COc1cc(F)c([C@@H]2CNC(=O)[C@H]2NC(=O)Nc2ncc(Cl)s2)c(F)c1 (relative stereo) [Example 1-26, (−)-1-(5-chlorothiazol-2-yl)-3-[(3S*,4R*)-4-(2,6-difluoro-4-methoxyphenyl)-2-oxopyrrolidin-3-yl]urea] |
| 1.8 | O=C(Nc1ccc(F)cc1)N[C@@H]1C(=O)NC[C@H]1c1c(F)cc(OC(F)F)cc1F (relative stereo) [Example 1-74, 1-{(3S*,4R*)-4-[4-(difluoromethoxy)-2,6-difluorophenyl]-2-oxopyrrolidin-3-yl}-3-(4-fluorophenyl)urea] |
| 1.56 | COc1cc(F)c([C@@H]2CNC(=O)[C@H]2NC(=O)Nc2ccc(Oc3ccccc3)cc2)c(F)c1 (relative stereo) [Example 7-7, (−)-1-[(3S*,4R*)-4-(2,6-difluoro-4-methoxyphenyl)-2-oxopyrrolidin-3-yl]-3-(4-phenoxyphenyl)urea] |
| 1.09 | COc1cc(F)c([C@@H]2CNC(=O)[C@H]2NC(=O)Nc2ccc(OC(F)(F)F)cc2)c(F)c1 (relative stereo) [Example 7-1, (−)-1-[(3S*,4R*)-4-(2,6-Difluoro-4-methoxyphenyl)-2-oxopyrrolidin-3-yl]-3-[4-(trifluoromethoxy)phenyl]urea] |
| 1.05 | COc1cc(F)c([C@@H]2CNC(=O)[C@H]2NC(=O)Nc2ccc(C3CC3)cc2)c(F)c1 (relative stereo) [Example 1-62, (−)-1-(4-cyclopropylphenyl)-3-[(3S*,4R*)-4-(2,6-difluoro-4-methoxyphenyl)-2-oxopyrrolidin-3-yl]urea] |
| 0.76 | COc1cc(F)c([C@@H]2CNC(=O)[C@H]2NC(=O)Nc2cc3ccccc3s2)c(F)c1 (relative stereo) [Example 1-35, (−)-1-(benzo[b]thiophen-2-yl)-3-[(3S*,4R*)-4-(2,6-difluoro-4-methoxyphenyl)-2-oxopyrrolidin-3-yl]urea] |
| 0.69 | O=C(Nc1ccc(F)cc1)N[C@@H]1C(=O)NC[C@H]1c1c(F)cc2c(c1F)CCO2 (relative stereo) [Example 1-80, 1-[(3S*,4R*)-4-(4,6-difluoro-2,3-dihydrobenzofuran-5-yl)-2-oxopyrrolidin-3-yl]-3-(4-fluorophenyl)urea] |
| 0.54 | COc1cc(F)c([C@@H]2CN=C(Nc3ccccc3)[C@H]2NC(=O)Nc2ccc(F)cc2)c(F)c1 (relative stereo) [EXAMPLE 32-18, 1-[(3R*,4S*)-3-(2,6-difluoro-4-methoxyphenyl)-5-(phenylamino)-3,4-dihydro-2H-pyrrol-4-yl]-3-(4-fluorophenyl)urea] |
| 0.37 | C/N=C1\NC[C@@H](c2c(F)cc(OC)cc2F)[C@@H]1NC(=O)Nc1ccc(F)cc1 (relative stereo) [EXAMPLE 32-6, 1-[(3S*,4R*,Z)-4-(2,6-difluoro-4-methoxyphenyl)-2-(methylimino)pyrrolidin-3-yl]-3-(4-fluorophenyl)urea] |
